Data from BindingDB's records for doi:10.1021/jm00090a003 (Universit&#233, 1992).
Values joined by “and” are separate entries in the source; they are usually repeats but may differ in a detail not shown here. Equal entries are not always repeated.

How the values were obtained:
[1] = molecular target: Calcitonin gene-related peptide (CGRP) receptor binding sites; assay: ChEBML_42602
[2] = molecular target: Calcitonin gene-related peptide type 1 receptor (Cavia porcellus); assay: Binding affinity against [125I]-hCalcitonin gene-related peptide type receptor binding sites in guinea pig atrium membrane

Row | IC50 [1] [nM] | IC50 [2] | Compound
1 | 14.5 | 11 nM | H-VTHRAAGLLSRSGGVVKNNFVPTNVGSKAF-NH2
2 | 9 | – | CC(C)C[C@H](NC(=O)CNC(=O)[C@H](C)NC(=O)[C@H](CC(C)C)NC(=O)[C@H](CCCN=C(N)N)NC(=O)[C@@H](N)Cc1c[nH]cn1)C(=O)N[C@@H](CC(C)C)C(=O)N[C@@H](CO)C(=O)N[C@@H](CCCN=C(N)N)C(=O)N[C@@H](CO)C(=O)NCC(=O)NCC(=O)N[C@H](C(=O)N[C@H](C(=O)N[C@@H](CCCCN)C(=O)N[C@@H](CC(N)=O)C(=O)N[C@@H](CC(N)=O)C(=O)N[C@@H](Cc1ccccc1)C(=O)N[C@H](C(=O)N1CCC[C@H]1C(=O)N[C@H](C(=O)N[C@@H](CC(N)=O)C(=O)N[C@H](C(=O)NCC(=O)N[C@@H](CO)C(=O)N[C@@H](CCCCN)C(=O)N[C@@H](C)C(=O)N[C@@H](Cc1ccccc1)C(N)=O)C(C)C)[C@@H](C)O)C(C)C)C(C)C)C(C)C
3 | – | 22 nM and 25 nM | H-VTHALAGLLSRSGGVVKNNFVPTNVGSKAF-NH2
